Results from patent publication US12508271B2, “Prodrugs of 2-PMPA for healthy tissue protection during PSMA-targeted cancer imaging or radiotherapy” (The Johns Hopkins University, priority 2017, dated 2025).

Key:
renal PSMA = target: T1, renal PSMA (Mus musculus, UniProt O35409); assay: Displacement study of 68Ga-PSMA-617 in non-tumor-bearing NMRI mice (PET); assay type: in vivo; details: 0.5 mg/kg i.v. 1 h after tracer, scan 2 h after tracer
T1 construct: from tissue; host or cells: kidney of living NMRI mice (PET)
T1 sequence (O35409 whole entry): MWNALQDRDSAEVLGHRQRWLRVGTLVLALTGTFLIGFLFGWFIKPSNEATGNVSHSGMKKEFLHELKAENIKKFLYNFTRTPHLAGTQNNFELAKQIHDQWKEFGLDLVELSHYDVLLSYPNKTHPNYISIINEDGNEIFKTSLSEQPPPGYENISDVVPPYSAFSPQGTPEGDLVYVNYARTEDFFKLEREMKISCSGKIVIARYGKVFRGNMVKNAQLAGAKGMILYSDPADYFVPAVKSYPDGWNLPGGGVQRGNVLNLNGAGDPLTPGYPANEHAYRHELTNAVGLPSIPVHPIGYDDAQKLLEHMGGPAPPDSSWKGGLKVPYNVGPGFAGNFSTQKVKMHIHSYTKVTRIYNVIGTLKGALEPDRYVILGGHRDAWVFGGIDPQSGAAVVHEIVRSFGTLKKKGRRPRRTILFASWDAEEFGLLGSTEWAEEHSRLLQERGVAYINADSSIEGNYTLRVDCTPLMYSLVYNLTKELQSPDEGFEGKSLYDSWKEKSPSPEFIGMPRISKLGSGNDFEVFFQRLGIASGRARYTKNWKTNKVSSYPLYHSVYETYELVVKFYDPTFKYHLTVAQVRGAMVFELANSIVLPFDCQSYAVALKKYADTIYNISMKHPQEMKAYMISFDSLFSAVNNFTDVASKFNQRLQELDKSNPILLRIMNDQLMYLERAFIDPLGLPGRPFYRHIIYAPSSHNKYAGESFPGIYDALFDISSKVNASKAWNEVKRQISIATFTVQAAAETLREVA
Experimental: ^68Ga-PSMA-617 was synthesized as described previously (Afshar-Oromieh et al., 2015). The specific activity of the radiopharmaceutical used in the presented animal study (20 MBq of ^68Ga tagged to 0.2-0.8 μg of precursor peptide) corresponds to the one used in clinical application (Afshar-Oromieh et al., 2015). Three non-tumor-bearing NMRI mice were injected via the tail vein with 20 MBq of ^68Ga-PSMA-617. 1 h post injection, enough time for specific tracer binding to renal PSMA and clearance of unbound tracer from the kidney calices, mice were imaged in a dedicated small animal PET-scanner (Siemens, Inveon) to quantify kidney uptake (baseline-scan). Immediately after the baseline scan 16 μg Tris-POC-2-PMPA (0.5 mg/kg*32.1 g bodyweight (BW) of all mice) in 100 μL saline was injected via the tail vein. Another 1 h later, i.e., 2 h after injection of the PET-tracer, ^68Ga-PSMA-617 kidney uptake was re-evaluated per animal PET (displacement-scan).

[1] = Comparative tissue distribution of 2-PMPA prodrugs versus equimolar 2-PMPA in nude mice (kidney 2-PMPA by LC/MS-MS); assay type: in vivo; details: 5 mg/kg or molar equivalent, i.p., 30 minutes
Experimental: Nude mice were administered either 2-PMPA or the prodrugs LTP-144 or Tris-POC-2-PMPA (compound 10 of Table 1) (5 mg/kg or molar equivalent, i.p.) prior to brief isoflurane anesthesia, saline perfusion, and sacrificed 30 minutes later. Kidneys were removed and flash frozen in liquid nitrogen. Each tissue sample was assessed for 2-PMPA concentration using previously described LC/MS-MS based bioanalysis (Majer et al., 2016). In addition, a prodrug of the urea-based PSMA ligand ZJ-43 (with similar pro-moiety modifications to Tris-POC-2-PMPA) was tested using similar methods.

PSMA [2] = target: T2, PSMA (Homo sapiens, UniProt Q04609); assay: 177Lu-PSMA-617 radiation dosimetry in mCRPC patients with Tris-POC-2-PMPA pre-treatment versus historical controls; assay type: in vivo; set-up: from tissue; host or cells: kidneys, salivary and lacrimal glands, and tumour lesions/metastases of living human subjects (PET / gamma imaging); details: for 177Lu-PSMA-617 absorbed dose, kidneys / 177Lu-PSMA-617 absorbed dose, parotid gland / 177Lu-PSMA-617 absorbed dose, submandibular gland / 177Lu-PSMA-617 mean dose to metastases: 15 minutes prior to infusion
T2 sequence (Q04609 whole entry, the tested form may be a part): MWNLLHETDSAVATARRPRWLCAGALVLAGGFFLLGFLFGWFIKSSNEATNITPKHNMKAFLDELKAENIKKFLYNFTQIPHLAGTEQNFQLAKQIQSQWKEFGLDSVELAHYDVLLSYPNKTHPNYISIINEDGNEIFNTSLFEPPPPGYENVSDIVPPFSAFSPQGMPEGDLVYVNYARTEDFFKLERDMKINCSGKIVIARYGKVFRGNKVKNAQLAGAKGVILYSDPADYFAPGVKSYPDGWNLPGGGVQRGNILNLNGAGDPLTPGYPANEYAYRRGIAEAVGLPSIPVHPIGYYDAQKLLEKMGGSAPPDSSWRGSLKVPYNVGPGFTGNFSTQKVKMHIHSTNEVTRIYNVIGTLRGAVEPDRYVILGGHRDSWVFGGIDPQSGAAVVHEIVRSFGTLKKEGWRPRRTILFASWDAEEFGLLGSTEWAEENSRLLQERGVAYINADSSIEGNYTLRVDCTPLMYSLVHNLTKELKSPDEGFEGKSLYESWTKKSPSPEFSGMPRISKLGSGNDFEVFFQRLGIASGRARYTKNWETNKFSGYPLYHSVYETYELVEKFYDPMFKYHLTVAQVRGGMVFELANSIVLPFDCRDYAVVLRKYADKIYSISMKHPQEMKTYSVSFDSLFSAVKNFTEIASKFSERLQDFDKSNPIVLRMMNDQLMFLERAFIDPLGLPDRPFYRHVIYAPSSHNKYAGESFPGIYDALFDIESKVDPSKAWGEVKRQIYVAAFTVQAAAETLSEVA
Experimental: ^177Lu-PSMA-617 was offered as surrogate therapy in accordance with the updated Declaration of Helsinki, paragraph-37 “Unproven Interventions in Clinical Practice,” and in accordance with German regulations for “compassionate use,” which includes priority of all approved treatments (without contraindications) and confirmation of the indication by both a nuclear medicine physician and an external expert in urology or oncology. No systematic patient selection was performed, except all patients had to present with a PSMA-positive tumor phenotype based on PSMA imaging. All patients were informed about the experimental nature of this therapy and gave written informed consent. The institutional review board approved this retrospective study. Two patients were pre-treated with Tris-POC-2-PMPA prior to administration of ^177Lu-PSMA-617. […] Dosimetry data from historical controls presented herein are derived from patients treated under the same protocol at our center as previously reported (J Nucl Med. 2016 August; 57(8):1170-6.). All dosimetry methods were conducted as previously described in that report (J Nucl Med. 2016 August; 57(8):1170-6.).

PSMA [3] = target: T2, PSMA; assay: Kidney and salivary gland uptake of 68Ga-PSMA-617 in healthy human subject with and without Tris-POC-2-PMPA pre-dosing (PET); assay type: in vivo; set-up: from tissue; host or cells: kidneys, salivary and lacrimal glands, and tumour lesions/metastases of living human subjects (PET / gamma imaging)
Experimental: From a couple of patients who had been imaged (Siemens, mCT) 0.1 h, 1 h, 2 h, 3 h and 4 h after injection of ^68Ga-PSMA-617 previously (Afshar-Oromieh et al., 2015), one subject without relevant tumor-load (<5 mL) was chosen to quantify the physiologic spontaneous tracer uptake in kidneys and salivary gland during the examination time. For the intervention experiment, one healthy volunteer was injected with […] (0.05 mg/kgBW) Tris-POC-2-PMPA solution (in 2.5 mL of 30% ethanol) 15 min before application of the PET-tracer. Again, PET-scans (Siemens, mCT) were performed 0.1 h, 1 h, 2 h, 3 h and 4 h after injection of ^68Ga-PSMA-617 and quantified per SUVmax for tracer uptake in kidneys and salivary glands over time.

PSMA [4] = assay: Displacement study of 68Ga-PSMA-617 in LNCaP tumor xenograft bearing nude mice (PET); assay type: in vivo; details: average of two animals, 0.5 or 0.05 mg/kgBW after baseline scan; baseline mSUV 1.02; saline control mSUV 0.84
Experimental: (§1) 5*10^6 LNCaP cells (BD Biosciences) were implanted behind the left shoulder of n=3 nude mice; tumors reached a diameter of approximately 1-cm diameter 8-12 weeks after inoculation. Baseline uptake of the radiopharmaceutical in kidneys and tumor was quantified per animal PET-scan (Siemens, Inveon) 1 h after injection of ^68Ga-PSMA-617 (10-40 MBq ^68Ga tagged to […] PSMA-617 precursor). Immediately after the baseline scan animals were injected with 0.5 mg/kgBW or 0.05 mg/kgBW Tris-POC-2-PMPA in […] saline or pure saline as control. Another 1 h later, i.e., 2 h after injection of the PET-tracer, ^68Ga-PSMA-617 uptake in kidneys and tumor were re-evaluated per second animal PET (displacement scan).

PSMA [5] = target: T2, PSMA; assay: Tumor, kidney and salivary gland uptake of 68Ga-PSMA-617 in a prostate cancer patient with and without Tris-POC-2-PMPA pre-dosing (PET); assay type: in vivo; set-up: from tissue; host or cells: kidneys, salivary and lacrimal glands, and tumour lesions/metastases of living human subjects (PET / gamma imaging)
Experimental: One patient was PET imaged 1 h after injection of ^68Ga-PSMA-617 and quantified per SUVmax for tracer uptake in tumor, kidneys and salivary glands. On a subsequent day, the same patient was imaged using the same protocol but with pretreatment of 10 mg (0.1 mg/kgBW) Tris-POC-2-PMPA solution (in 2.5 mL of 30% ethanol) 15 min before application of the PET-tracer.

PSMA [6] = target: PSMA (Mus musculus, UniProt O35409); assay: Displacement study of 68Ga-PSMA-617 in LNCaP tumor xenograft bearing nude mice (PET); assay type: in vivo; set-up: from tissue; host or cells: kidney of nude mice bearing LNCaP xenografts (PET)
Sequence of PSMA (Mus musculus, UniProt O35409) (O35409 whole entry): as the sequence (O35409 whole entry) above
Experimental: as §1

[7] = cited from earlier work
PSMA [8] = target: T2, PSMA; set-up: from tissue; host or cells: kidneys, salivary and lacrimal glands, and tumour lesions/metastases of living human subjects (PET / gamma imaging); details: without Tris-POC-2-PMPA; same center (Kratochwil et al., 2016); cited from earlier work
[9] = 10 mg, i.v., 15 minutes prior to tracer, PET 1 h p.i., same patient
[10] = PET 1 hour after administration, no Tris-POC-2-PMPA
[11] = other mCRPC patients, literature

Which results are given for `CC(C)OC(=O)OCOC(=O)C(CCC(=O)O)CP(=O)(OCOC(=O)OC(C)C)OCOC(=O)OC(C)C` (centres unmarked) [Tris-POC-2-PMPA]?
residual kidney uptake relative to baseline (renal PSMA): < 10 % of baseline-uptake; residual kidney uptake of 68Ga-PSMA-617 in displacement-scan (renal PSMA; baseline-scan 3.4 mSUV): 0.3 mSUV; concentrations of 2-PMPA in the kidney compared to an equimolar dose of 2-PMPA [1]: significantly increased; 177Lu-PSMA-617 absorbed dose, kidneys (PSMA [2]; patient 1, 10 mg, i.v.): 0.38 Gy/GBq; 177Lu-PSMA-617 absorbed dose, parotid gland (PSMA [2]; patient 1, 10 mg, i.v.): 0.24 Gy/GBq; 177Lu-PSMA-617 absorbed dose, submandibular gland (PSMA [2]; patient 1, 10 mg, i.v.): 0.5 Gy/GBq; 177Lu-PSMA-617 mean dose to metastases (PSMA [2]; patient 1, 10 mg, i.v.): 8.03 Gy/GBq; 177Lu-PSMA-617 absorbed dose, kidneys (PSMA [2]; patient 2, 10 mg, i.v.): 0.43 Gy/GBq; 177Lu-PSMA-617 absorbed dose, parotid gland (PSMA [2]; patient 2, 10 mg, i.v.): 0.46 Gy/GBq; 177Lu-PSMA-617 absorbed dose, submandibular gland (PSMA [2]; patient 2, 10 mg, i.v.): 0.44 Gy/GBq; 177Lu-PSMA-617 mean dose to metastases (PSMA [2]; patient 2, 10 mg, i.v.): 13.15 Gy/GBq; effect on liver exposure to 177Lu-PSMA-617 (PSMA [2]; pre-treatment): modestly reduce; effect on spleen dose of 177Lu-PSMA-617 (PSMA [2]; pre-treatment): no clear effect; dose reduction to the lacrimal glands relative to mean control values (PSMA [2]; pre-treatment before 177Lu-PSMA-617): about 82%; effect on the 177Lu-PSMA-617 dose to metastases (PSMA [2]; pre-treatment, versus historical controls): little or no effect; dose reduction, salivary glands, relative to historical controls (PSMA [2]; two patients, prior to infusion of 177Lu-PSMA-617): 72%; mean absorbed dose reduction, kidneys, relative to historical controls (PSMA [2]; two patients, 10 mg, i.v.): 45%; mean absorbed dose reduction, parotid gland, relative to historical controls (PSMA [2]; two patients, 10 mg, i.v.): 76%; mean absorbed dose reduction, submandibular gland, relative to historical controls (PSMA [2]; two patients, 10 mg, i.v.): 67%; mean absorbed dose reduction, kidneys, relative to historical controls (PSMA [2]; two patients, 10 mg, i.v., listed as TRIS-POC-2-PMPA): 48%; decrease of maximum 68Ga-PSMA-617 uptake in kidney parenchyma versus representative control (PSMA [3]; 5 mg (0.05 mg/kgBW) 15 min before tracer, healthy volunteer): 65%; maximum 68Ga-PSMA-617 uptake in parotid glands (PSMA [3]; 5 mg (0.05 mg/kgBW) 15 min before tracer, control without pre-dosing 41.2): 13.5 SUVmax; maximum 68Ga-PSMA-617 uptake in kidney parenchyma (PSMA [3]; 5 mg (0.05 mg/kgBW) 15 min before tracer, control without pre-dosing 47.5): 16.5 SUVmax; displacement of 68Ga-PSMA-617 binding to kidney and salivary glands (PSMA [3]; pre-administration, healthy human male): approximately 65%; tumor uptake of 68Ga-PSMA-617 in displacement-scan (PSMA [4]): 1.00 mSUV; mean change of 68Ga-PSMA-617 uptake in metastases (PSMA [5]; 10 mg, i.v., 15 minutes prior to tracer): 3%; 68Ga-PSMA-617 uptake in kidneys after pre-treatment (PSMA [5]; [9]): 8.5 SUVmax; 68Ga-PSMA-617 uptake in metastases after pre-treatment (PSMA [5]; [9]): 3.9-8.8 SUVmax; 68Ga-PSMA-617 uptake in parotid gland after pre-treatment (PSMA [5]; [9]): 10.6 SUVmax; 68Ga-PSMA-617 uptake in submandibular gland after pre-treatment (PSMA [5]; [9]): 14.6 SUVmax; effect on tumor uptake of the tracer (PSMA [5]; intraindividual comparison, prostate cancer patient): completely spared tumor uptake; kidney uptake of 68Ga-PSMA-617 in displacement-scan (PSMA [6]; 0.5 or 0.05 mg/kgBW after baseline scan, baseline mSUV 2.36, saline control mSUV 0.47): 0.24 mSUV; kidney uptake lower than achieved with forced diuresis (saline control) (PSMA [6]; displacement-scan, 2 h after tracer): 50%

For `O=C([O-])CN1CCN(CC(=O)[O-])CCN(CC(=O)NC[C@H]2CC[C@H](C(=O)N[C@@H](Cc3ccc4ccccc4c3)C(=O)NCCCC[C@H](NC(=O)N[C@@H](CCC(=O)O)C(=O)O)C(=O)O)CC2)CCN(CC(=O)[O-])CC1.[68Ga+3]` [^68Ga-PSMA-617, reference compound], which “uptake in kidneys without pre-treatment” value (PSMA [5]; [10]) is on record?
The value was 35.4 SUVmax.

What about the “uptake in metastases without pre-treatment” value (PSMA [5]; [10]) of the same molecule?
The value was 3.6-12.5 SUVmax.

What about the “uptake in parotid gland without pre-treatment” value (PSMA [5]; [10]) of the same molecule?
The value was 18.2 SUVmax.

What about the “uptake in submandibular gland without pre-treatment” value (PSMA [5]; [10]) of the same molecule?
Its value is 23.1 SUVmax.

With `O=C([O-])CN1CCN(CC(=O)[O-])CCN(CC(=O)NCC2CCC(C(=O)N[C@@H](Cc3ccc4ccccc4c3)C(=O)NCCCC[C@H](NC(=O)N[C@@H](CCC(=O)O)C(=O)O)C(=O)O)CC2)CCN(CC(=O)[O-])CC1.[177Lu+3]` (some centres unmarked) [^177Lu-PSMA-617] as the molecule, how does the “mean effective dose to the lacrimal glands” value ([7]; Hohberg et al., 2016) read?
The value was 2.82 Gy/GBq.

And the “absorbed dose to the kidneys, reported range” value [7, 11]?
Its value is 0.53-0.99 Gy/GBq.

What about the “absorbed dose to the red marrow, reported range” value [7, 11] of the same molecule?
The value was 0.01-0.05 Gy/GBq.

And the “absorbed dose to the salivary glands, reported range” value [7, 11]?
Its value is 0.72-1.90 Gy/GBq.

And the “mean absorbed dose to the kidneys, historical controls” value (PSMA [8])?
The value was 0.78 Gy/GBq.

And the “mean absorbed dose to the red marrow, historical controls” value (PSMA [8])?
Its value is 0.03 Gy/GBq.

What about the “mean absorbed dose to the salivary glands, historical controls” value (PSMA [8]) of the same molecule?
The value was 1.44 Gy/GBq.
